Data: patent US20230097603A1, “NICOTINAMIDE MONONUCLEOTIDE DERIVATIVES FOR THE TREATMENT OF ARRHYTHMIA” (NUVAMID SA, priority 2020, published 2023)
“Also recorded” adds a separate entry of the source.

Tests used:
[1] = tested on: ischaemia-reperfusion rat; experiment: Arrhythmia induced by ischaemia-reperfusion in anaesthetised rats; assay type: in vivo; details: for ventricular fibrillation during the ischaemia (effect in words) / ventricular tachycardia during the ischaemia (effect in words) / incidence of ventricular tachycardia during reperfusion (effect in words) / duration of ventricular tachycardia during reperfusion (effect in words) / ventricular fibrillation during reperfusion (effect in words) / mortality during the reperfusion period (effect in words): iv; for ventricular fibrillation during the ischaemia (effect in words) / ventricular tachycardia during the ischaemia (effect in words): I-C 185 mg/kg 30 min before, cariporide 0.3 mg/kg 5 min before ischaemia; for incidence of ventricular tachycardia during reperfusion (effect in words) / duration of ventricular tachycardia during reperfusion (effect in words) / ventricular fibrillation during reperfusion (effect in words) / mortality during the reperfusion period (effect in words): I-C 185 mg/kg, cariporide 0.3 mg/kg; for duration of ventricular tachycardia during reperfusion (effect in words) / ventricular fibrillation during reperfusion (effect in words): vs carrier; for mortality during the reperfusion period (effect in words): carrier group 25% death
Experimental: Arrhythmias were obtained in an acute model of ischaemia-reperfusion in rats.
The rats were first anaesthetised, then intubated and mechanically ventilated, before being prepared for surgery.
Catheters were then placed in the carotid artery in order to measure the arterial pressure and in the caudal vein for the perfusion of drugs. The arterial catheter consists in a catheter filled with fluid which sends the pressure to a transducer located nearby. The mean arterial pressure is calculated electronically and recorded continuously.
A three-lead electrocardiogram (ECG) was recorded throughout the procedure by means of needle electrodes attached to the limbs.
The modifications to the ECG, mean arterial pressure (MAP) and the heart rate were measured before and during the occlusion-reperfusion period. The definitions of the arrhythmias are based on those described in the Lambeth conventions (Walker and al., The Lambeth conventions: guidelines for the study of arrhythmias in ischaemia infarction, and reperfusion, Cardiovascular Research, 1988, 22(7), 447-455). The ectopic activity has been categorized as a single ventricular premature beat (VPB), a ventricular tachycardia (VT, four or more consecutive VPBs) or a ventricular fibrillation (VF, inability to distinguish individual QRS complexes and to measure the rate). The arterial pressure traces were referred to in order to confirm which type of ectopic activity was produced, in particular to distinguish between polymorphic VT and VF. When the first is produced, the arterial pressure is generally still pulsatile whereas with VF, the arterial pressure falls rapidly towards zero and is no longer pulsatile. The VF can be sustained or can spontaneously return to a normal sinusoidal rhythm in rats. In all the experiments, the incidences of TV and VF as well as the duration of the ventricular tachycardia were noted.
The heart was then exposed by a left intercostal thoracotomy. After opening the pericardium, a 6.0 silk stitch was placed around the left coronary artery on a polypropylene tube in order to form a collar. The hearts were subjected to an ischaemia for 7 minutes by tightening the suture 5 minutes after the treatment. Finally, the collar occluder was released in order to allow the reperfusion of the myocardial tissue for 10 minutes. At the end of the reperfusion period, the rats were euthanised by cervical dislocation while still anaesthetised.
The means± the standard error on the mean are presented.
The statistical analysis was carried out using the GraphPad Prism 5 software. The Fisher test was used to analyse the differences between the incidences of arrhythmias, while the chi-squared test was used to compare the incidence of mortality. The Kruskall-Wallis test was used to analyse the differences between the duration of the tachycardia and the ventricular fibrillations and the difference in the number of ventricular fibrillations.
The rats were treated by the intravenous route with a saline solution, a compound of formula I-C at 185 mg/kg (30 minutes before the ischaemia) or cariporide at 0.3 mg/kg (5 minutes before the ischaemia). The animals were subjected to a 7-minute ischaemia and a 10-minute reperfusion. Throughout the experimental phase, the arterial pressure and ECG profiles were recorded continuously. Blood was sampled 5 minutes after the end of the reperfusion and the heart was weighed.

[2] = tested on: arrhythmias induced by doxorubicin; experiment: Arrhythmia induced by doxorubicin in mice, heart rate by ECG; assay type: in vivo; details: for heart rate 5 days after the injection of DOX (effect in words): vs DOX + carrier
Experimental: The goal of this study was to evaluate the effects of an i.p. administration of compounds I-C, I-J and I-K, at 180 mg/kg, on arrhythmias induced by doxorubicin. 76 male mice, 8 weeks old on arrival, were obtained from Janvier Labs, Le Genest St Isle, 53941 St Berthevin, France. Each animal was identified with an electronic chip. The powder of compounds I-C, I-J and I-K (180 mg/kg) was dissolved in the carrier (the solution was used at ambient temperature for a maximum of 1 day). […] Doxorubicin was prepared at 2 mg/mL and the administration volume was 10 mL/kg. The control group received an injection of saline solution. Each group comprises 14 to 24 mice. As indicated in the regulations relating to non-clinical laboratory studies, the groups of test and control animals have been kept under identical conditions. The envisaged duration of the study was 11 days. […] The treatment with compounds I-C, I-J and I-K was initiated after 5 days before the injection of DOX, once per day from Day 5 to Day 0. The mice were treated i.p with compounds I-C, I-J and I-K 30 minutes before the injection of DOX. The mice were treated i.p with compounds I-C, I-J and I-K during the duration of the experiment (J0 to J5) once per day. […] In particular, the heart rate was evaluated during the ECG: […]

infarction = details: ischaemia of at least 30 minutes and reperfusion of at least 60 minutes; cited from earlier work
[3] = DOX 20 mg/kg i.p. + compound 180 mg/kg i.p. once per day
[4] = 185 mg/kg iv 30 minutes before ischaemia, 7-minute ischaemia
[5] = 185 mg/kg iv, 10-minute reperfusion

Row | Compound | ventricular fibrillation during the ischaemia (effect in words) [1] | ventricular tachycardia during the ischaemia (effect in words) [1] | incidence of ventricular tachycardia during reperfusion (effect in words) ([1]; 10-minute reperfusion) | duration of ventricular tachycardia during reperfusion (effect in words) ([1]; 10-minute reperfusion) | ventricular fibrillation during reperfusion (effect in words) ([1]; 10-minute reperfusion) | mortality during the reperfusion period (effect in words) [1] | heart rate 5 days after the injection of DOX (effect in words) [2, 3] | also measured
1 | CC(C)c1ccc(C(=O)NC(=N)N)cc1S(C)(=O)=O [Cariporide, reference compound] | removed | removed | no beneficial effect | tendency to be shorter | removed | removed | – | –
2 | NC(=O)c1ccc[n+]([C@@H]2O[C@H](COP(=O)([O-])O)[C@@H](O)[C@H]2O)c1 [I-C] | remove the ventricular fibrillation | significantly reduce the incidence and duration | no effect | appeared to reduce the duration | tendency to reduce the incidence | removed mortality | increase in heart rates; also recorded: significantly attenuated | duration of ventricular tachycardia during the ischaemia [1, 4]: 0.2 ± 0.2 s; incidence of ventricular tachycardia during the ischaemia [1, 4]: approximately 9%; duration of ventricular fibrillation during reperfusion [1, 5]: 4.0±2.3 % of the duration of the reperfusion; incidence of ventricular fibrillation during reperfusion [1, 5]: approximately 55%; number of ventricular fibrillations during reperfusion [1, 5]: approximately one
3 | NC(=O)c1ccc[n+]([C@@H]2O[C@H](COP(=O)([O-])OP(=O)([O-])OC[C@H]3O[C@H]([n+]4cccc(C(N)=O)c4)[C@H](O)[C@@H]3O)[C@@H](O)[C@H]2O)c1 [I-J] | – | – | – | – | – | – | increase in heart rates; also recorded: significantly attenuated | heart rate 5 days after the injection of DOX [2, 3]: 470.1±18.8 bpm
4 | NC(=O)c1ccc[n+]([C@H]2O[C@H](COP(=O)([O-])OP(=O)([O-])OC[C@H]3O[C@H]([n+]4cccc(C(N)=O)c4)[C@H](O)[C@@H]3O)[C@@H](O)[C@H]2O)c1 [I-K] | – | – | – | – | – | – | increase in heart rates; also recorded: significantly attenuated | –
5 | NC(=O)c1ccc[n+]([C@@H]2O[C@H](COP(=O)([O-])O)[C@@H](O)[C@H]2O)c1 [NMN, Nicotinamide Mononucleotide] | – | – | – | – | – | – | – | protective effect against infarction (infarction): protects the heart
6 | COc1cccc2c1C(=O)c1c(O)c3c(c(O)c1C2=O)C[C@@](O)(C(=O)CO)C[C@@H]3O[C@H]1C[C@H](N)[C@H](O)[C@H](C)O1 [doxorubicin, reference compound] | – | – | – | – | – | – | – | heart rate 5 days after the injection of DOX ([2]; DOX 20 mg/kg i.p. + carrier, control mice 525.6±19.8 bpm): 365.1±23.9 bpm
